Assay results: patent US6692880B2, “Electrophotographic toner with stable triboelectric properties” (Heidelberger Druckmaschinen AG, priority 2001, dated 2004)
Blank lines part the entries; values can stand above or below the molecule they belong to.

Legend:
[1] = Charge per mass of developers after exercise periods, MECCA device; format: physicochemical; conditions: clear polyester toner; for Fresh Developer 10 min exercise (charge values) / Fresh developer 2 min shake (charge values) / Rebuilt developer 2 min shake (charge values) / Rebuilt developer 10 min exercise (charge values): Binder C resin
[2] = obtained or extrapolated from tables in Morrison and Boyd; cited from earlier work
[3] = pKa values measured by titrimetry; format: physicochemical; conditions: (a) values measured by titrimetry; read-out: pKa 1
Text: Any acidic material having a pKa in the range of from about 2 to about 8 can be used as the first charge control agent. Acidic materials with pKa values of from 3 to 7 are particularly preferred. Acidic materials preferably contain a labile proton, such as a carboxylic, phenolic or sulfonic acid. More broadly an acid also includes compounds within the definition as proposed by G. N. Lewis, that is an acid is any material capable of accepting an electron pair from a donor molecule. The term pKa is defined as
where Ka is an inherent molecular property of an acidic compound and is called the acid dissociation constant. Ka is defined by the following equation; [formula]
In a practical sense the lower the pKa value the stronger the acid. Acids useful in this invention may have more than one acid function per molecule such as di- and tri-carboxylic or di- and tri-sulfonic acids. Further, multiple types of acid functional groups may be present in the useful molecule for example as in p-carboxybenzenesulfonic acid. One skilled in the art can readily propose other such acids based on the foregoing definitions.

[4] = 0.2 pph added acid, 2 pph Bontron E-84
[5] = 1 pph added acid, 2 pph Bontron E-84
[6] = 5 pph added acid, 2 pph Bontron E-84
[7] = 0.2 pph added acid, LLT-101 resin, 2 pph Bontron E-84
[8] = 0.2 pph adipic acid added, 0 pph Bontron E-84, Binder C
[9] = 0.2 pph adipic acid added, 2 pph Bontron E-84, Binder C
[10] = 1 pph added acid, LLT-101 resin, 2 pph Bontron E-84
[11] = 1 pph adipic acid added, 0 pph Bontron E-84, Binder C
[12] = 1 pph adipic acid added, 2 pph Bontron E-84, Binder C
[13] = 5 pph added acid, LLT-101 resin, 2 pph Bontron E-84
[14] = 5 pph adipic acid added, 0 pph Bontron E-84, Binder C
[15] = 5 pph adipic acid added, 2 pph Bontron E-84, Binder C

SMILES: C=C(CC(=O)O)C(=O)O [Itaconic acid]
Fresh Developer 10 min exercise (charge values) [1, 4]: −63.1 μC/g
Fresh developer 2 min shake (charge values) [1, 4]: −20.6 μC/g
Rebuilt developer 2 min shake (charge values) [1, 4]: −41.3 μC/g
Rebuilt developer 10 min exercise (charge values) [1, 4]: −49.7 μC/g
Fresh Developer 10 min exercise (charge values) [1, 5]: −33.7 μC/g
Fresh developer 2 min shake (charge values) [1, 5]: −13.6 μC/g
Rebuilt developer 2 min shake (charge values) [1, 5]: −10.2 μC/g
Rebuilt developer 10 min exercise (charge values) [1, 5]: −22.6 μC/g
Fresh Developer 10 min exercise (charge values) [1, 6]: −24.1 μC/g
Fresh developer 2 min shake (charge values) [1, 6]: −11.9 μC/g
Rebuilt developer 2 min shake (charge values) [1, 6]: −6.4 μC/g
Rebuilt developer 10 min exercise (charge values) [1, 6]: −18.7 μC/g

Fresh Developer 10 min exercise (charge per mass) [1, 7]: −63.2 μC/g
Fresh developer 2 min shake (charge per mass) [1, 7]: −25.9 μC/g
Rebuilt developer 2 min shake (charge per mass) [1, 7]: −56.9 μC/g
Rebuilt developer 10 min exercise (charge per mass) [1, 7]: −57.7 μC/g
Fresh Developer 10 min exercise (charge per mass) [1, 8]: −30.1 μC/g
Fresh developer 2 min shake (charge per mass) [1, 8]: −10.0 μC/g
Rebuilt developer 2 min shake (charge per mass) [1, 8]: −7.1 μC/g
Rebuilt developer 10 min exercise (charge per mass) [1, 8]: −17.3 μC/g
Fresh Developer 10 min exercise (charge per mass) [1, 9]: −64.2 μC/g
Fresh developer 2 min shake (charge per mass) [1, 9]: −29.6 μC/g
Rebuilt developer 2 min shake (charge per mass) [1, 9]: −39.4 μC/g
Rebuilt developer 10 min exercise (charge per mass) [1, 9]: −49.6 μC/g
Fresh Developer 10 min exercise (charge per mass) [1, 10]: −40.9 μC/g
Fresh developer 2 min shake (charge per mass) [1, 10]: −23.7 μC/g
Rebuilt developer 2 min shake (charge per mass) [1, 10]: −27.1 μC/g
Rebuilt developer 10 min exercise (charge per mass) [1, 10]: −28.8 μC/g
Fresh Developer 10 min exercise (charge per mass) [1, 11]: −27.6 μC/g
Fresh developer 2 min shake (charge per mass) [1, 11]: −10.1 μC/g
Rebuilt developer 2 min shake (charge per mass) [1, 11]: −4.6 μC/g
Rebuilt developer 10 min exercise (charge per mass) [1, 11]: −12.5 μC/g
Fresh Developer 10 min exercise (charge per mass) [1, 12]: −41.8 μC/g
Fresh developer 2 min shake (charge per mass) [1, 12]: −30.4 μC/g
Rebuilt developer 2 min shake (charge per mass) [1, 12]: −17.1 μC/g
Rebuilt developer 10 min exercise (charge per mass) [1, 12]: −32.3 μC/g
Fresh Developer 10 min exercise (charge per mass) [1, 13]: −25.8 μC/g
Fresh developer 2 min shake (charge per mass) [1, 13]: −18.6 μC/g
Rebuilt developer 2 min shake (charge per mass) [1, 13]: −17.9 μC/g
Rebuilt developer 10 min exercise (charge per mass) [1, 13]: −24.5 μC/g
Fresh Developer 10 min exercise (charge per mass) [1, 14]: −28.4 μC/g
Fresh developer 2 min shake (charge per mass) [1, 14]: −10.4 μC/g
Rebuilt developer 2 min shake (charge per mass) [1, 14]: −5.3 μC/g
Rebuilt developer 10 min exercise (charge per mass) [1, 14]: −11.6 μC/g
Fresh Developer 10 min exercise (charge per mass) [1, 15]: −35.7 μC/g
Fresh developer 2 min shake (charge per mass) [1, 15]: −18.5 μC/g
Rebuilt developer 2 min shake (charge per mass) [1, 15]: −11.2 μC/g
Rebuilt developer 10 min exercise (charge per mass) [1, 15]: −29.2 μC/g
SMILES: O=C(O)CCCCC(=O)O [Adipic acid]
pKa 1 [2]: 4.5

Fresh Developer 10 min exercise (charge values) [1, 4]: −88.1 μC/g
Fresh developer 2 min shake (charge values) [1, 4]: −44.3 μC/g
Rebuilt developer 2 min shake (charge values) [1, 4]: −60.1 μC/g
Rebuilt developer 10 min exercise (charge values) [1, 4]: −77.5 μC/g
Fresh Developer 10 min exercise (charge per mass) [1, 7]: −96.0 μC/g
Fresh developer 2 min shake (charge per mass) [1, 7]: −40.9 μC/g
Rebuilt developer 2 min shake (charge per mass) [1, 7]: −83.5 μC/g
Rebuilt developer 10 min exercise (charge per mass) [1, 7]: −110.1 μC/g
Fresh Developer 10 min exercise (charge values) [1, 5]: −104.5 μC/g
Fresh developer 2 min shake (charge values) [1, 5]: −43.7 μC/g
Rebuilt developer 2 min shake (charge values) [1, 5]: −69.6 μC/g
Rebuilt developer 10 min exercise (charge values) [1, 5]: −90.8 μC/g
Fresh Developer 10 min exercise (charge per mass) [1, 10]: −125.5 μC/g
Fresh developer 2 min shake (charge per mass) [1, 10]: −52.5 μC/g
Rebuilt developer 2 min shake (charge per mass) [1, 10]: −114.0 μC/g
Rebuilt developer 10 min exercise (charge per mass) [1, 10]: −123.0 μC/g
Fresh Developer 10 min exercise (charge values) [1, 6]: bicharged
Fresh developer 2 min shake (charge values) [1, 6]: −14.7 μC/g
Rebuilt developer 2 min shake (charge values) [1, 6]: −35.0 μC/g
Rebuilt developer 10 min exercise (charge values) [1, 6]: bicharged
Fresh Developer 10 min exercise (charge per mass) [1, 13]: bicharged
Fresh developer 2 min shake (charge per mass) [1, 13]: −8.7 μC/g
Rebuilt developer 2 min shake (charge per mass) [1, 13]: −12.1 μC/g
Rebuilt developer 10 min exercise (charge per mass) [1, 13]: −6.2 μC/g
SMILES: CCCCCCCCCCCC(=O)O [Lauric acid]

Fresh Developer 10 min exercise (charge values) [1, 4]: −78.1 μC/g
Fresh developer 2 min shake (charge values) [1, 4]: −35.3 μC/g
Rebuilt developer 2 min shake (charge values) [1, 4]: −63.2 μC/g
Rebuilt developer 10 min exercise (charge values) [1, 4]: −72.1 μC/g
Fresh Developer 10 min exercise (charge values) [1, 5]: −84.8 μC/g
Fresh developer 2 min shake (charge values) [1, 5]: −40.0 μC/g
Rebuilt developer 2 min shake (charge values) [1, 5]: −56.8 μC/g
Rebuilt developer 10 min exercise (charge values) [1, 5]: −67.7 μC/g
Fresh Developer 10 min exercise (charge values) [1, 6]: −71.6 μC/g
Fresh developer 2 min shake (charge values) [1, 6]: −36.9 μC/g
Rebuilt developer 2 min shake (charge values) [1, 6]: −42.6 μC/g
Rebuilt developer 10 min exercise (charge values) [1, 6]: −60.5 μC/g
SMILES: Nc1ccc(C(=O)O)cc1 [4-aminobenzoic acid]

pKa [3]: 6.6
SMILES: CC1=NN(c2ccccc2)C(=O)C1 [MPP, 2,4-dihydro-5-methyl-2-phenyl-3H-pyrazol-3-one]

Fresh Developer 10 min exercise (charge values) [1, 4]: −58.9 μC/g
Fresh developer 2 min shake (charge values) [1, 4]: −25.5 μC/g
Rebuilt developer 2 min shake (charge values) [1, 4]: −45.3 μC/g
Rebuilt developer 10 min exercise (charge values) [1, 4]: −49.8 μC/g
Fresh Developer 10 min exercise (charge per mass) [1, 7]: −37.2 μC/g
Fresh developer 2 min shake (charge per mass) [1, 7]: −30.3 μC/g
Rebuilt developer 2 min shake (charge per mass) [1, 7]: −43.9 μC/g
Rebuilt developer 10 min exercise (charge per mass) [1, 7]: −35.6 μC/g
Fresh Developer 10 min exercise (charge values) [1, 5]: −46.9 μC/g
Fresh developer 2 min shake (charge values) [1, 5]: −24.4 μC/g
Rebuilt developer 2 min shake (charge values) [1, 5]: −34.4 μC/g
Rebuilt developer 10 min exercise (charge values) [1, 5]: −37.9 μC/g
Fresh Developer 10 min exercise (charge per mass) [1, 10]: −19.7 μC/g
Fresh developer 2 min shake (charge per mass) [1, 10]: −34.9 μC/g
Rebuilt developer 2 min shake (charge per mass) [1, 10]: −15.2 μC/g
Rebuilt developer 10 min exercise (charge per mass) [1, 10]: −12.9 μC/g
Fresh Developer 10 min exercise (charge values) [1, 6]: −13.8 μC/g
Fresh developer 2 min shake (charge values) [1, 6]: −28.3 μC/g
Rebuilt developer 2 min shake (charge values) [1, 6]: −16.5 μC/g
Rebuilt developer 10 min exercise (charge values) [1, 6]: −13.3 μC/g
Fresh Developer 10 min exercise (charge per mass) [1, 13]: −10.0 μC/g
Fresh developer 2 min shake (charge per mass) [1, 13]: −32.8 μC/g
Rebuilt developer 2 min shake (charge per mass) [1, 13]: −18.2 μC/g
Rebuilt developer 10 min exercise (charge per mass) [1, 13]: −5.8 μC/g
SMILES: O=C(O)c1ccc(C(=O)O)cc1 [Terephthalic acid]

pKa [3]: 3.5
SMILES: CCOC(=O)/C=C/C(=O)O [fumaric acid monoethyl ester]

SMILES: O=C(O)CCCC(=O)O [Glutaric acid]
pKa 2 [2]: 5.4
Fresh Developer 10 min exercise (charge values) [1, 4]: −66.2 μC/g
Fresh developer 2 min shake (charge values) [1, 4]: −26.5 μC/g
Rebuilt developer 2 min shake (charge values) [1, 4]: −45.7 μC/g
Rebuilt developer 10 min exercise (charge values) [1, 4]: −58.1 μC/g
Fresh Developer 10 min exercise (charge values) [1, 5]: −42.5 μC/g
Fresh developer 2 min shake (charge values) [1, 5]: −16.6 μC/g
Rebuilt developer 2 min shake (charge values) [1, 5]: −15.6 μC/g
Rebuilt developer 10 min exercise (charge values) [1, 5]: −30.1 μC/g
Fresh Developer 10 min exercise (charge values) [1, 6]: −11.8 μC/g
Fresh developer 2 min shake (charge values) [1, 6]: −6.2 μC/g
Rebuilt developer 2 min shake (charge values) [1, 6]: −4.5 μC/g
Rebuilt developer 10 min exercise (charge values) [1, 6]: −13.3 μC/g

SMILES: O=C(O)c1ccccc1C(=O)O [phthalic]
pKa 1 [2]: 3.0
pKa 2 [2]: 5.4

SMILES: CC(C)(C)c1cc(C(=O)O)cc(C(C)(C)C)c1 [3,5-di-t-butylbenzoic, 3,5-di-t-butylbenzoic acid]
pKa 1 [2]: 4.6

Fresh Developer 10 min exercise (charge values) [1, 4]: −65.5 μC/g
Fresh developer 2 min shake (charge values) [1, 4]: −22.7 μC/g
Rebuilt developer 2 min shake (charge values) [1, 4]: −46.5 μC/g
Rebuilt developer 10 min exercise (charge values) [1, 4]: −62.0 μC/g
Fresh Developer 10 min exercise (charge values) [1, 5]: −50.5 μC/g
Fresh developer 2 min shake (charge values) [1, 5]: −21.0 μC/g
Rebuilt developer 2 min shake (charge values) [1, 5]: −25.5 μC/g
Rebuilt developer 10 min exercise (charge values) [1, 5]: −46.5 μC/g
Fresh Developer 10 min exercise (charge values) [1, 6]: −41.1 μC/g
Fresh developer 2 min shake (charge values) [1, 6]: −17.4 μC/g
Rebuilt developer 2 min shake (charge values) [1, 6]: −17.0 μC/g
Rebuilt developer 10 min exercise (charge values) [1, 6]: −42.8 μC/g
SMILES: O=C(O)c1ccccc1O [Salicylic acid]
